This is an account of results in patent publication US9637470B2, “Treatment for substance use disorders and stress disorders” (Baylor College of Medicine, priority 2013, dated 2017).

For data set [1], the target named is T1, human serotonin transporter (Homo sapiens, UniProt P31645).
T1 construct: expressed in transfected cells; host or cells: HEK-293
As to the kind of experiment: Serotonin transporter reuptake inhibition assay (prior art). Format: cell-based. Particulars: at 100 nM; across serotonin, norepinephrine, and dopamine transporters. The method, then: Serotonin transporter reuptake inhibition was assayed using the method described by Gu H. et al., J Biol Chem., 1994, 269, p […], the entire contents of which are incorporated herein by reference. Recombinant HEK-293 cells with human serotonin transporter were plated. Test compounds were pre-incubated with cells (2×10^5/ml) in modified Tris-HEPES buffer at pH 7.1 for 20 min at 25° C. and were incubated for an additional 10 min after addition of 65 nM of [3H]Serotonin. Bound cells were filtered and counted to determine [3H]Serotonin uptake. Reduction of [3H]Serotonin uptake by 50 percent or more (≧50%) relative to 10 μM fluoxetine indicated significant inhibitory activity.

Data set [2] concerns the target T2, human recombinant dopamine transporter (Homo sapiens, UniProt Q01959).
T2 construct: expressed in transfected cells; host or cells: CHO-K1
The following applies: at 100 nM; cited from earlier work.

For data set [3], the target named is T3, human recombinant norepinephrine transporter (Homo sapiens, UniProt P23975).
T3 construct: expressed in transfected cells; host or cells: MDCK
The following applies: at 100 nM; cited from earlier work.

In data set [4] the target is T1, human serotonin transporter. Particulars: at 100 nM; cited from earlier work.
A further data set concerns humans. Particulars: cited from earlier work.

T1 sequence (P31645 whole entry): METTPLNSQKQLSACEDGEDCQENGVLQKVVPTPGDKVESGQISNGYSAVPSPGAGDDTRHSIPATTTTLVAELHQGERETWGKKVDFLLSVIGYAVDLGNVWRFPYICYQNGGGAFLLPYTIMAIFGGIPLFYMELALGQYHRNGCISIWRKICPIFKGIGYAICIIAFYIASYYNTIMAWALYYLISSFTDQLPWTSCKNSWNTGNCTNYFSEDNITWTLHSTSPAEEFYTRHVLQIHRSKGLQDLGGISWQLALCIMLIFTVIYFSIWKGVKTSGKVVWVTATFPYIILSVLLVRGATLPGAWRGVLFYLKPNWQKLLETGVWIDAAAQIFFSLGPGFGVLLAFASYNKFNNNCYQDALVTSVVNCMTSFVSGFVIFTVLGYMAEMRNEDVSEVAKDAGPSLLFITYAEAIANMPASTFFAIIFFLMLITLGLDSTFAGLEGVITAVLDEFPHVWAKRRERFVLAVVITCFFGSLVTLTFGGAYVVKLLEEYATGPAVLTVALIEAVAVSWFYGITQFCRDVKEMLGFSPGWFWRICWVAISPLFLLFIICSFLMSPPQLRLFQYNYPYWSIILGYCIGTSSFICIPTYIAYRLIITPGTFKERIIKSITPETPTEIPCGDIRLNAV
T2 sequence (Q01959 whole entry): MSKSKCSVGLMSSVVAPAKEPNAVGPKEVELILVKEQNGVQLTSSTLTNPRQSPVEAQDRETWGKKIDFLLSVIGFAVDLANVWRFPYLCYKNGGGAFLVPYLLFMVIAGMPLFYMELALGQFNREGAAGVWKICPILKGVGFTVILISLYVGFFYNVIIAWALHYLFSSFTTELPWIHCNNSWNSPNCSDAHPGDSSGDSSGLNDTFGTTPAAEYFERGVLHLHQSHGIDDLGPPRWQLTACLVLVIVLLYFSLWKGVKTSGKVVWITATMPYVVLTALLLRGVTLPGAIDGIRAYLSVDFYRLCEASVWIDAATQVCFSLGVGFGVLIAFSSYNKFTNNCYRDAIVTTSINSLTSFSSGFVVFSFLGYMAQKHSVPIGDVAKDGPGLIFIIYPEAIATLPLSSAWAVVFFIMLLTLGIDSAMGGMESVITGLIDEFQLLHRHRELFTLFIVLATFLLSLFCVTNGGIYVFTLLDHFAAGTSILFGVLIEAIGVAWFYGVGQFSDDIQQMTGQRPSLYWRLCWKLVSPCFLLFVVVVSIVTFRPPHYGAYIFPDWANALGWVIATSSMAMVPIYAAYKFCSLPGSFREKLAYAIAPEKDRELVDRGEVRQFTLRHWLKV
T3 sequence (P23975 whole entry): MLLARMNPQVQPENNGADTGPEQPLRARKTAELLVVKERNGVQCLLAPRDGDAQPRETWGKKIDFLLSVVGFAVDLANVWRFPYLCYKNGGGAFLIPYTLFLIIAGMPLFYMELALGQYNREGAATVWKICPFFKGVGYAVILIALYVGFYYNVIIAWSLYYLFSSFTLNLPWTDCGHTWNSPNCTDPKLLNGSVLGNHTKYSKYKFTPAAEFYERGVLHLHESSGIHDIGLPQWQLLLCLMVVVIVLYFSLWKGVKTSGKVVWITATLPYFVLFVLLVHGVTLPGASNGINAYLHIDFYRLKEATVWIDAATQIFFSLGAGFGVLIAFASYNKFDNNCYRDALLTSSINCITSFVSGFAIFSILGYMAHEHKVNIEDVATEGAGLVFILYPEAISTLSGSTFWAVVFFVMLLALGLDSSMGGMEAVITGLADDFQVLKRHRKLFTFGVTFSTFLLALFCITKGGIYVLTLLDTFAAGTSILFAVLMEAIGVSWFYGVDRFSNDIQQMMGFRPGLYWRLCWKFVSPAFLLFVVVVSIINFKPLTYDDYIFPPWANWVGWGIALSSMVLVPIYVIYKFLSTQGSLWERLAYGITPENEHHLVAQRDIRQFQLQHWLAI

`c1ccc2cc([C@H]([C@H]3CCCNC3)n3nccn3)ccc2c1` [Example Compound 14, (3S)-3-[(S)-naphthalen-2-yl(2H-1,2,3-triazol-2-yl)methyl]piperidine]: the “subtractive difference of reuptake inhibition percentages, at most” value in data set [1] is reported as 24%. Moreover, the “reuptake inhibition percentage, dopamine transporter” value in data set [2] is 52%. Besides, the “reuptake inhibition percentage, norepinephrine transporter” value in data set [3] is 70%. For the same compound, in data set [4], the “reuptake inhibition percentage, serotonin transporter” value was 76%.

On to `Clc1ccc([C@]23CNCC2C3)cc1Cl` (stereo partly drawn) [amitifadine], for which, in the data set on humans, the “positive subjective effects in humans (comparators)” value was “does not produce positive subjective effects”.

On to `CCOC[C@@H]1[C@@H](c2ccc(Cl)c(Cl)c2)C[C@@H]2CC[C@H]1N2C` [tesofensine], for which the “positive subjective effects in humans (comparators)” value in the data set on humans is listed as “does not produce positive subjective effects”.
